In patent US4103011A, “Novel penicillin compounds and process for preparation thereof” (priority 1976, dated 1978):
Structures can show the parent of a compound that is named as a salt. Where two headings read alike, the source gives them in different places.

Tests used:
[1] = tested on: Escherichia coli NIHJ JC-2; experiment: In vitro antibacterial activity (MIC); type: cell-based; conditions: Escherichia coli, NIHJJC2, read-out: minimum inhibitory concentration (MIC)
Source text: In vitro antibacterial activity against 20 strains of bacteria
The numerals in the table show minimum inhibitory concentrations (MIC)

[2] = tested on: Escherichia coli P-5101; experiment: In vivo efficacy against systemic infection; design: species or system male mice (ddY); conditions: P5101, in Mus musculus, 168 h, twice, about 5 minutes and 6 hours after infection, read-out: ED50 (median effective dose)
How it was run: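 Male ddY mice of about 20g were infected intraperitoneally with E. coli P-5101 suspended in tryptosoy broth. Compounds dissolved in deionized water were given twice, about 5 minutes and 6 hours after infection. Effective dose was calculated by the Behrens-Kaerber method.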

[3] = tested on: bacteria (systemic infection); experiment: In vivo efficacy against systemic infection, overall conclusions; design: species or system male mice (ddY); conditions: Table II
Experimental: The contents in the vials (No. A and No. C) prepared in Example 17 were each dissolved in deionized water, and injections having various concentrations were prepared.
Compounds A, B, F, G, H and M were dissolved in deionized water. Compounds C, D, E and J were dissolved in an aqueous solution of sodium carbonate (pH 8-9) to prepare injections of various concentrations.
Each of the injections was administered to mice under the conditions described below, and the median effective doses (ED50) obtained are shown in Table II.

[4] = Urinary excretion in mice; type: in vivo, male mice (ddY); conditions: for a: amount in urine: 4 mice, total body weight 101.8 g
Experimental: The contents of the vials (No. A) obtained in Example 17 were dissolved in deionized water to form solutions of penicillin compound 1 in a concentration of 25 mg/ml. The solutions were administered in a dose of 25 mg/kg (im) to four male mice (ddY) having an average body weight of 25 g. After given periods of time, the urine was collected from the four mice, and the concentration of the penicillin compound 1 in the urine was determined.
Urine was collected by using a metabolism cage for 3, 6, and 24 hours after administration. The pooled urine was diluted with a 0.067M phosphate buffer (pH 7.0) before assay to 500 times for the 0-3 hour urine, 100 times for the 3-6 hour urine and 10 times for the 6-24 hour urine.
The levels of compound 1 were determined by the thin-layer cup-plate method using Escherichia coli Kp as an indicator microorganism and a standard calibration line was prepared in a 0.067M phosphate buffer (pH 7.0).

Structure (SMILES): CC1(C)S[C@@H]2[C@H](NC(=O)[C@H](NC(=O)c3c[nH]c4nc(N5CCN(C=O)CC5)ncc4c3=O)c3ccc(O)cc3)C(=O)N2[C@H]1C(=O)O [Compound 1, D-α-[5,8-Dihydro-2-(4-formyl-1-piperazinyl)-5-oxopyrido[2,3-d]pyrimidine-6-carboxamido]-p-hydroxybenzyl-penicillin sodium salt]
- MIC [1]: 3.13 mg/L
- ED50 ([2]; iv): 2.9 mg/kg
- ED50 ([2]; sc): 3.7 mg/kg
- antibacterial activity in vivo (in words) [3]: excellent antibacterial activity in vivo
- a: amount in urine ([4]; 25 mg/kg, im, single dose, 0-3 hour): 0.718 mg
- a: amount in urine ([4]; 25 mg/kg, im, single dose, 3-6 hour): 0.0480 mg
- a: amount in urine ([4]; 25 mg/kg, im, single dose, 6-24 hour): 0.0483 mg
- urinary level (in words) ([4]; after parenteral administration): higher than its MIC (μg/ml) values against various bacteria shown in Table I
- dose excreted at 3 h ([4]; mouse, urine, im, 25 mg/kg, im, single dose, 0-3 hour, read-out: cr: cumulative urinary recovery): 28.2%
- dose excreted at 3 h ([4]; mouse, urine, im, 25 mg/kg, im, single dose, 0-3 hour, read-out: r: urinary recovery): 28.2%
- dose excreted at 6 h ([4]; mouse, urine, im, 25 mg/kg, im, single dose, 3-6 hour, read-out: r: urinary recovery): 1.89%
- dose excreted at 24 h ([4]; mouse, urine, im, 25 mg/kg, im, single dose, 6-24 hour, read-out: r: urinary recovery): 1.9%
- dose excreted at 6 h ([4]; mouse, urine, im, 25 mg/kg, im, single dose, column 3-6 hour, read-out: cr: cumulative urinary recovery): 30%
- dose excreted at 24 h ([4]; mouse, urine, im, 25 mg/kg, im, single dose, column 6-24 hour, read-out: cr: cumulative urinary recovery): 31.9%
- concentration at 3 h ([4]; mouse, urine, 25 mg/kg, im, single dose, 0-3 hour, read-out: c: urinary concentration): 187 µg/mL
- concentration at 6 h ([4]; mouse, urine, 25 mg/kg, im, single dose, 3-6 hour, read-out: c: urinary concentration): 21.5 µg/mL
- concentration at 24 h ([4]; mouse, urine, 25 mg/kg, im, single dose, 6-24 hour, read-out: c: urinary concentration): 7.25 µg/mL
